Experimental data published in ChEMBL document CHEMBL1201862, “PubChem BioAssay data set” (2004).
Activity calls are given as the source filed them.

Tests used:
[1] = NIH-3T3 fibroblast cytotoxicity, dose response, cytotoxicity control, cell-based, fluorescence, Alamar Blue, secondary assay (AID 2327); format: functional;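 note: NIH-3T3 mouse fibroblasts cultured with fluconazole at 8 µg/mL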
[2] = fluconazole-exposed Candida albicans growth modulators – fluorescence, retest, confirmation (AID 2467); format: functional, cell-based
[3] = molecular target: T1, Calpain-2 catalytic subunit (Sus scrofa, UniProt P43367); test: m-calpain protease blockers, concentration series – biochemical, fluorogenic peptide substrate, dose response (AID 1420); format: functional
T1 sequence (P43367 whole entry): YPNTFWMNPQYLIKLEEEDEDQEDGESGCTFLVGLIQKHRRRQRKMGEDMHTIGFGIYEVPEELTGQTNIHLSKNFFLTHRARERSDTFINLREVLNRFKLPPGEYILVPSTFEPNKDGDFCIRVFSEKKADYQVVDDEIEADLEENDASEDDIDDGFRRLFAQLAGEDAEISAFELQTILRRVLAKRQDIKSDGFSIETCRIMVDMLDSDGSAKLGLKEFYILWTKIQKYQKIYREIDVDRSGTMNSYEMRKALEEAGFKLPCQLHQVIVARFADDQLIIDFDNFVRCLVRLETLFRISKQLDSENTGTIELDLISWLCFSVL

[4] = P. falciparum Dd2 growth inhibitors, dose response, SYBR Green, cherry-picked samples (AID 1159567); format: functional, cell-based
[5] = molecular target: T2, Replicative DNA helicase DnaB (Mycobacterium tuberculosis, UniProt P9WMR3); test: DnaB intein splicing inhibitors, dose response, biochemical, cell-free fluorescence (AID 449749); format: functional
T2 sequence (P9WMR3 whole entry): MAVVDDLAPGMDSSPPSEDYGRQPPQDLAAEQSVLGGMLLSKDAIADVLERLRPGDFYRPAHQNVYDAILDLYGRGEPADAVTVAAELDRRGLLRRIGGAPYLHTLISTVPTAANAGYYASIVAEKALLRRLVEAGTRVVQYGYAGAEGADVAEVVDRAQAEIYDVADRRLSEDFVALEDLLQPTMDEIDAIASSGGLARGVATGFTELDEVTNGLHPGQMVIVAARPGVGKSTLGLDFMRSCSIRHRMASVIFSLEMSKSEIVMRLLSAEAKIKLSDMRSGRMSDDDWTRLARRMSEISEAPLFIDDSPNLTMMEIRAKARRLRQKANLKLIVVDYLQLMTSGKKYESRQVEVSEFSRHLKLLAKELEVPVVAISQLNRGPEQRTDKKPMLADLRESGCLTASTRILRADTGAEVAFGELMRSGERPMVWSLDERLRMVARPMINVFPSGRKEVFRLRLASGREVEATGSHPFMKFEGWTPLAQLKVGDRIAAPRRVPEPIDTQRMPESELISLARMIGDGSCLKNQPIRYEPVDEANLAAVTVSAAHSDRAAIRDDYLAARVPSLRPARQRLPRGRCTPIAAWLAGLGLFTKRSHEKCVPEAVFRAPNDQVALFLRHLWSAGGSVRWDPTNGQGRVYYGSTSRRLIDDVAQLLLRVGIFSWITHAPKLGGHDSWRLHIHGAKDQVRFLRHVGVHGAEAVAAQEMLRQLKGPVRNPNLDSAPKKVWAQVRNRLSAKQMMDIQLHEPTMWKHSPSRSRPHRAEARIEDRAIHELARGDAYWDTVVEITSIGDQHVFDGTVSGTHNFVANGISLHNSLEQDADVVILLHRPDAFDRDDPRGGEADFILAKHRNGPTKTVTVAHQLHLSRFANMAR

Protein RecA = molecular target: T3, Protein RecA (Mycobacterium tuberculosis, UniProt P9WHJ3); test: Fluorescence Cell-Free Homogeneous Dose Retest to Identify Inhibitors of RecA-Intein Splicing Activity. [Related pubchem assays (depositor defined):AID2097, AID2223, AID489010, AID492950]; format: functional
T3 sequence (P9WHJ3 whole entry): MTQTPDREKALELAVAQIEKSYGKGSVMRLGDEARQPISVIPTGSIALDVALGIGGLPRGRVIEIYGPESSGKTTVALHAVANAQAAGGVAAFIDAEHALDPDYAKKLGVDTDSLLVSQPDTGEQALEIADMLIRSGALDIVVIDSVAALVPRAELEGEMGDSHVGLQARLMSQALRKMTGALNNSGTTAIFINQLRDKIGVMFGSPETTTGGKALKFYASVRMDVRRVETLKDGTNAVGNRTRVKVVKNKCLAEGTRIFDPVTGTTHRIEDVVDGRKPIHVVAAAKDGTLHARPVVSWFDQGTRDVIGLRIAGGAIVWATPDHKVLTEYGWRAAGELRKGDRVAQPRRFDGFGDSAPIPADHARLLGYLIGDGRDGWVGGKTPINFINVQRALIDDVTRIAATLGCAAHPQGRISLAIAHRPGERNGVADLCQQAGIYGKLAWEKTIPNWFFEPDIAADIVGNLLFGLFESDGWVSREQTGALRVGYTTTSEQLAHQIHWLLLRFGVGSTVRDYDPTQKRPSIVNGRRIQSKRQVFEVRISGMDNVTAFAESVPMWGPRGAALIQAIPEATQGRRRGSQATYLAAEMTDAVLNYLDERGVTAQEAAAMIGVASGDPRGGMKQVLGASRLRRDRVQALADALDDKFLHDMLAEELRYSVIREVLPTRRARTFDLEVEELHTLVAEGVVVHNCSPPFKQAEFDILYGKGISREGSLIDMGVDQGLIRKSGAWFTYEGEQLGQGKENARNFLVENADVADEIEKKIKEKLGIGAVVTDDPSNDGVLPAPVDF

Cytochrome P450 1A2 = molecular target: T4, Cytochrome P450 1A2 (Homo sapiens, UniProt P05177);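 note: PubChem cytochrome P450 panel assay, CYP1A2 panel member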
T4 sequence (P05177 whole entry): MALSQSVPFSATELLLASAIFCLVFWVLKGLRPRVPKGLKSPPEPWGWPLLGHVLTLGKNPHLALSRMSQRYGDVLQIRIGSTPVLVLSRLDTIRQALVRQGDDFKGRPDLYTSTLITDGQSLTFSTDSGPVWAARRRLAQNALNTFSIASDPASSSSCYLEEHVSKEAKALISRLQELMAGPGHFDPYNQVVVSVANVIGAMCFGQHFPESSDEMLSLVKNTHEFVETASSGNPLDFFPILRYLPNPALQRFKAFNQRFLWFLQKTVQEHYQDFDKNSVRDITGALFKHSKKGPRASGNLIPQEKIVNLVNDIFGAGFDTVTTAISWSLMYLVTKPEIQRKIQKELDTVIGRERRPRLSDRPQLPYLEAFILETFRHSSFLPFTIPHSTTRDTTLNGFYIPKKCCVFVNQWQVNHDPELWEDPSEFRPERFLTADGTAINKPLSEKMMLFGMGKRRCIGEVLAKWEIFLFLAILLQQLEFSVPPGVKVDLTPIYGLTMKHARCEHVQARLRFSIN

Cytochrome P450 2C9 = Cytochrome P450 2C9 (Homo sapiens, UniProt P11712)
[6] = molecular target: T5, Polyadenylate-binding protein 1 (Homo sapiens, UniProt P11940); test: MLLE binding blockers, Cy5 peptide tracer – biochemical, fluorescence polarization, Cy5-PAM2 peptide, secondary, miRNA deadenylation inhibitor project, dose response (AID 602260); format: functional; conditions: read-out: IC50_Mean
[7] = molecular target: T5, Polyadenylate-binding protein 1; test: MLLE domain peptide-binding blockers, IC50 – biochemical, fluorescence polarization, FITC-PAM2 peptide, dose response (AID 602259); format: functional; conditions: read-out: IC50_Mean
Cytochrome P450 2D6 = Cytochrome P450 2D6 (Homo sapiens, UniProt P10635);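 note: CYP2D6 member of a cytochrome P450 panel assay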
cells [8] = format: functional, cell-based
cells [9] = format: functional, cell-based; remark: listed apart in the source
Cytochrome P450 2C19 = Cytochrome P450 2C19 (Homo sapiens, UniProt P33261); test: Cytochrome panel assay with activity outcomes. Panel member name: p450-cyp2c19 Compounds with AC50 equal or less than 10 uM are considered active; format: functional
Cytochrome P450 3A4 = Cytochrome P450 3A4 (Homo sapiens, UniProt P08684);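 note: CYP3A4 tested as one member of a cytochrome P450 panel screen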
Sequence of Cytochrome P450 3A4 (P08684 whole entry): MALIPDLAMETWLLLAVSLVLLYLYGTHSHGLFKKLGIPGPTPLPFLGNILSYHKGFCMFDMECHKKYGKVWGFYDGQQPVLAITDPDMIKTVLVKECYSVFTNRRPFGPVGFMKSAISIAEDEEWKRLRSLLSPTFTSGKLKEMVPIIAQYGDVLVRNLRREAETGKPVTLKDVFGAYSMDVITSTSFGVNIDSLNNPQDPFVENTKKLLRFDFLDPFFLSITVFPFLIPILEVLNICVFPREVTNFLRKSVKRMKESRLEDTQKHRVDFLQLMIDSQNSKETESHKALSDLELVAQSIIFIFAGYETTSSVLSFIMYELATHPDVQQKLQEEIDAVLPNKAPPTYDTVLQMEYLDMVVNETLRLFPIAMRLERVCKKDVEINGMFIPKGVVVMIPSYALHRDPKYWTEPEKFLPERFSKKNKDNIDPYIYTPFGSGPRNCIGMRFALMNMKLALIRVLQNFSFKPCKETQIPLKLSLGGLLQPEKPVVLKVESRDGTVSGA

T5 sequence (P11940 whole entry, the tested form may be a part): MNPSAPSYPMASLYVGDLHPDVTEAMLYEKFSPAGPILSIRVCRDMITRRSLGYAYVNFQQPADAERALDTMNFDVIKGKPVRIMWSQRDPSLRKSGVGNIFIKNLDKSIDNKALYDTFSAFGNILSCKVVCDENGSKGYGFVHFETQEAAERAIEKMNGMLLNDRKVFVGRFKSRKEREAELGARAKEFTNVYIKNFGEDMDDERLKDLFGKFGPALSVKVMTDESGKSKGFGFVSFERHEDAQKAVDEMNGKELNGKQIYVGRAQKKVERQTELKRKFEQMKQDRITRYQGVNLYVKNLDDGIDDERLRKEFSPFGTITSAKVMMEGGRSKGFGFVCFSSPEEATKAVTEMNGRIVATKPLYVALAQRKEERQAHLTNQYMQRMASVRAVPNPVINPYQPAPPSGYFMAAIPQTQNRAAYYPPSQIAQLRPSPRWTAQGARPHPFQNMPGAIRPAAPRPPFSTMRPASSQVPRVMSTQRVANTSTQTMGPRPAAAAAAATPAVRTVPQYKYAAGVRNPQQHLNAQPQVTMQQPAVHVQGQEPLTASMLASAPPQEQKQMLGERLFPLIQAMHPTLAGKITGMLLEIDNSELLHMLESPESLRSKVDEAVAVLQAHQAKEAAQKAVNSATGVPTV
Sequence of Cytochrome P450 2C9 (P11712 whole entry): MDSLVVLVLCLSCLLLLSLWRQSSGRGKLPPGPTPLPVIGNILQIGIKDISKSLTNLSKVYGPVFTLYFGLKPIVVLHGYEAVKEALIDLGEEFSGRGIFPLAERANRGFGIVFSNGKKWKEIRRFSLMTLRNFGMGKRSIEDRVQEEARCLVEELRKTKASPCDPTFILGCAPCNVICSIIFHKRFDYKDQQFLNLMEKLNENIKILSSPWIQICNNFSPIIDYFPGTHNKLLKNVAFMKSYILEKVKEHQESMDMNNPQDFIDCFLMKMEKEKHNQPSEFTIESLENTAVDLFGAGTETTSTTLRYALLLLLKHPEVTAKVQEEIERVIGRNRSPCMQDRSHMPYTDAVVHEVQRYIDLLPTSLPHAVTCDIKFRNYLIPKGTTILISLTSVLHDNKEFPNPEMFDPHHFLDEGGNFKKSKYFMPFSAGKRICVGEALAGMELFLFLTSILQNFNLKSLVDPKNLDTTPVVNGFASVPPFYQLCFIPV
Sequence of Cytochrome P450 2D6 (P10635 whole entry): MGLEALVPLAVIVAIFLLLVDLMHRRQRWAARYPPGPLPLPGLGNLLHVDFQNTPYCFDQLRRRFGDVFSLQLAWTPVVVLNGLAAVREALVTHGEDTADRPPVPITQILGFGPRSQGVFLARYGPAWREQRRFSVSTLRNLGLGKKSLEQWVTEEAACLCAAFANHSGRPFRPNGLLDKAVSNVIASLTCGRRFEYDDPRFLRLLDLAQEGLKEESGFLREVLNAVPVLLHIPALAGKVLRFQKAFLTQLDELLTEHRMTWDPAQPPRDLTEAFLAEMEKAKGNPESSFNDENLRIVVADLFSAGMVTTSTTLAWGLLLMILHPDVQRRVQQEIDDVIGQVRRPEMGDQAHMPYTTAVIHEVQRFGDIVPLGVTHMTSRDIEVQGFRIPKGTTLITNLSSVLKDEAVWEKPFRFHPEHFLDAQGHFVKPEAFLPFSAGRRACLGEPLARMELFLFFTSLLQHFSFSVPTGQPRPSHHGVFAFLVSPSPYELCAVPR
Sequence of Cytochrome P450 2C19 (P33261 whole entry): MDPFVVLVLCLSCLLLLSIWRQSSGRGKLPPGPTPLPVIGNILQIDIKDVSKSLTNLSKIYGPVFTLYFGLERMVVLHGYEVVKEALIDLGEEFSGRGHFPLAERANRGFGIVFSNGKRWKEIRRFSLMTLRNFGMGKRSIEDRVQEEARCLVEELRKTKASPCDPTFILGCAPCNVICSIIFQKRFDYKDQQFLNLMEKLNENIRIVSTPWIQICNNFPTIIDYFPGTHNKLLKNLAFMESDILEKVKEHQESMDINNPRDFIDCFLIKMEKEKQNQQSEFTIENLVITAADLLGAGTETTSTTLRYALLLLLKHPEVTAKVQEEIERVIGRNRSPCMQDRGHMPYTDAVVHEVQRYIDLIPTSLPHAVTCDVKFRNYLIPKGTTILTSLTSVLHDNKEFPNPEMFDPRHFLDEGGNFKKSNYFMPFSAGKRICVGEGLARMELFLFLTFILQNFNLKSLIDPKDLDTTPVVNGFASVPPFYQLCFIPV

COC(=O)c1[nH]c2cc(C)ccc2c1NC(=O)CN1CCc2cc(OC)c(OC)cc2C1
EC50 [1]: > 150 µM (inactive)
EC50 [2]: > 38 µM (not active)

CCCCOc1cccc(C(=O)NN=C(S)NC2CCCCC2)c1
EC50 [1]: 37.1 µM (active)

Cc1c(C(=O)N2CCC(C)CC2)sc2ncnc(N3CCN(c4ccccc4)CC3)c12
IC50 [3]: 19 µM (not active)

CC(=O)N1CC[C@@H]2[C@@H](CO)Nc3ccc(C#Cc4ccccc4F)cc3[C@@H]21
AC50 [4]: 10.7 µM (active)

COc1ccc(CNc2ccc3c[nH]nc3c2)c(OC)c1OC
AC50 [5]: 2.69 µM (active)
EC50 (Protein RecA): 0.797 µM (active)

CCCCNS(=O)(=O)c1ccc(OC)c(Cl)c1Cl
AC50 (Cytochrome P450 1A2): 4.47 µM (inconclusive)
AC50 (Cytochrome P450 2C9): inconclusive

Oc1ccc(Br)cc1/C=N/c1cccn2cc(-c3ccccc3)nc12
IC50 [6]: > 66 µM (inactive)
IC50 [7]: > 66 µM (inactive)

COc1ccc2c(Cc3c4ccccc4cc4ccccc34)cncc2c1O
AC50 (Cytochrome P450 2D6): 3.16 µM (inconclusive)
AC50 (Cytochrome P450 2C9): inconclusive

Cc1cccc(NC(S)=NCc2cccs2)c1
IC50 [3]: > 50 µM (not active)

Cc1nc2ccccc2n2c(-c3ccccc3)c3c(=O)n(C)c(=O)n(C)c3c12
EC50 (cells [8]): > 350 µM (not active)
EC50 (cells [9]): > 350 µM (not active)

COc1ccc2c3c([nH]c2c1)[C@H](CO)N(Cc1ccccc1F)CC31CN(C(=O)C2CCC2)C1
AC50 [4]: 7.75 µM (active)

CC1CCCN(C2=C(Cl)C(=O)N(c3cccc(Cl)c3)C2=O)C1 (stereo not given)
AC50 [5]: > 380 µM (inactive)
EC50 (Protein RecA): 2.86 µM (active)

COc1ccc(N2CCN(C(c3ccccc3)c3nnnn3Cc3ccc(F)cc3)CC2)cc1 (stereo not given)
IC50 [3]: 5 µM (not active)

COc1ccc2c3c([nH]c2c1)[C@@H](CO)N(Cc1ccccc1)CC31CCN(C(=O)c2cccnc2)CC1
AC50 [4]: 4.55 µM (active)

Cc1ccc(N2C(=O)C3C4C=CC(CN=C(S)Nc5cccc(Cl)c5)(O4)C3C2=O)cc1 (stereo not given)
IC50 [6]: > 66 µM (inactive)
IC50 [7]: > 66 µM (inactive)

CCOc1cc(C)ccc1OCc1nnc(SCC(=O)c2cccc([N+](=O)[O-])c2)n1CC
AC50 (Cytochrome P450 2C9): inconclusive

Cc1cc(SCC(=O)c2cccs2)nc2c(C)cccc12
AC50 (Cytochrome P450 2C9): inconclusive

CC(C)Cn1c(N)c(C(=O)COC(=O)c2cccc(F)c2)c(=O)n(C)c1=O
IC50 [3]: 16.2 µM (not active)

O=C(Nc1ccccn1)c1ccco1
AC50 (Cytochrome P450 2C19): inconclusive
AC50 (Cytochrome P450 2C9): inconclusive

CN(Cc1ccccc1)C(=O)CC(=O)N(C)Cc1ccccc1
EC50 (cells [8]): > 350 µM (not active)
EC50 (cells [9]): > 350 µM (not active)

CC1Cc2ccccc2N1C(=O)CCN1C(=O)C2C3C=CC(C3)C2C1=O (stereo not given)
AC50 (Cytochrome P450 2C19; read-out: AC50): 10 µM (inconclusive)
AC50 (Cytochrome P450 1A2): 10 µM (inconclusive)
AC50 (Cytochrome P450 2C9): inconclusive

CSc1nn2c(C(F)(F)F)cc(C(F)(F)F)nc2c1C(=O)O
EC50 [1]: > 160 µM (inactive)

NN=C(S)Nc1cccc(Cl)c1
EC50 [1]: > 150 µM (inconclusive)
EC50 [2]: > 38 µM (not active)

C/C=C/c1ccccc1[C@@H]1[C@@H](CO)N(S(=O)(=O)c2cccc(F)c2)[C@H]1C#N
AC50 [4]: 6.96 µM (active)

Cn1nc(C(C)(C)C)cc1C(=O)Sc1cccc(Br)c1
AC50 [5]: 16.4 µM (active)
EC50 (Protein RecA): 37.1 µM (inconclusive)
IC50 [6]: > 66 µM (inactive)
IC50 [7]: > 66 µM (inactive)

N=C(NNC(=O)c1ccccc1)c1cc2ccccc2oc1=O
IC50 [3]: 48.5 µM (not active)

CCOc1ccc(NC(=O)NNC(=O)c2cc3ccccc3cc2O)cc1
EC50 [1]: > 150 µM (inactive)

O=C(Oc1ccc(-c2ccccc2)cc1)N1CCCCC1
IC50 [3]: 1.11 µM (not active)

O=C(Cc1ccccc1Cl)NCCCn1ccnc1
IC50 [3]: > 50 µM (not active)

Cc1ccc(SCC(=O)c2sc(-c3ccccc3)nc2C)cc1
IC50 [3]: 6.06 µM (not active)

COc1ccc(Cl)cc1NC(=O)NCCCl
AC50 (Cytochrome P450 2C9): inconclusive

C=COC(=O)CSc1snc(SCC(=O)OC)c1C#N
AC50 [5]: > 380 µM (inactive)
EC50 (Protein RecA): 40.1 µM (active)

Cc1cc(C)c(S(=O)(=O)NNC(=O)C2CCN(Cc3ccccc3)CC2)c(C)c1
AC50 (Cytochrome P450 3A4): 22.4 µM (inconclusive)
AC50 (Cytochrome P450 2C9): inconclusive

CCc1ccc(CNC(=O)CCC(=O)N2Cc3cccc(OC)c3Oc3ncccc32)cc1
EC50 [1]: > 160 µM (inactive)
EC50 [2]: > 38 µM (not active)

CCOc1ccc(CCNC(=O)CN2CCN(Cc3ccc(F)cc3)C2=O)cc1OCC
IC50 [3]: > 50 µM (not active)

O=C1c2ccccc2C(=O)N1CC1=CCS(=O)(=O)C1
IC50 [6]: > 66 µM (inactive)
IC50 [7]: > 66 µM (inactive)

Cc1ccc(C(=O)NC(=S)Nc2ccc(N3CCN(C(=O)c4ccco4)CC3)cc2)cc1
IC50 [6]: > 66 µM (inactive)
IC50 [7]: > 66 µM (inactive)

CC(C)CNCC(=O)N1c2ccccc2Sc2ccccc21.O=C(O)C(=O)O
AC50 (Cytochrome P450 2D6): 28.2 µM (inconclusive)
AC50 (Cytochrome P450 1A2): 15.8 µM (inconclusive)
AC50 (Cytochrome P450 2C9): inconclusive

O=C1CC/[N+](=C\c2ccc(Cl)c(Cl)c2)[N-]1
AC50 [5]: 17.8 µM (active)
EC50 (Protein RecA): 8.98 µM (active)

COc1ccc(S(=O)(=O)N(C(=O)C(C)C)c2ccc3oc(=O)sc3c2)cc1
IC50 [6]: > 66 µM (inactive)
IC50 [7]: > 66 µM (inactive)
